Data from patent US7638537B2, “Pyrazole compounds as transforming growth factor (TGF) inhibitors” (Pfizer Inc., priority 2002, dated 2009).

Biological target: T1, ALK-5 (TβRI) (Homo sapiens, UniProt P36897)
T1 construct: using either the kinase domain of ALK5 with Smad3 as substrate; GST
T1 sequence (P36897 205-495 limits assumed): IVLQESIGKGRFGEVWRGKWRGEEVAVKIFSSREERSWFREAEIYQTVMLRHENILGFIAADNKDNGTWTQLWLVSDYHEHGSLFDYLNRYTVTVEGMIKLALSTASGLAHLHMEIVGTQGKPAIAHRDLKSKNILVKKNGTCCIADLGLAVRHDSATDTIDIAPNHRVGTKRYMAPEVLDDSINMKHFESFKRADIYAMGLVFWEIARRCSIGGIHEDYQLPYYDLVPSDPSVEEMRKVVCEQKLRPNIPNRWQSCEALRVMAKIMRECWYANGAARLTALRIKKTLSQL
Test: ALK-5 (TβRI) Kinase Assay
Assay type: biochemical
Method: The kinase assays were performed with 65 nM GST-ALK5 and 84 nM GST-Smad3 in 50 mM HEPES, 5 mM MgCl2, 1 mM CaCl2, 1 mM dithiothreitol, and 3_M ATP. Reactions were incubated with 0.5_Ci of [33 P]_ATP for 3 h at 30° C. Phosphorylated protein was captured on P-81 paper (Whatman, Maidstone, England), washed with 0.5% phosphoric acid, and counted by liquid scintillation. Alternatively, Smad3 or Smad1 protein was also coated onto FlashPlate Sterile Basic Microplates (PerkinElmer Life Sciences, Boston, Mass.). Kinase assays were then performed in Flash-Plates with same assay conditions using either the kinase domain of ALK5 with Smad3 as substrate or the kinase domain of ALK6 (BMP receptor) with Smad1 as substrate. Plates were washed three times with phosphate buffer and counted by TopCount (Packard Bio-science, Meriden, Conn.). (Laping, N. J. et al. Molecular Pharmacology 62:58-64 (2002)).

IC50: ~51 nM
Structure (SMILES): c1ccc(-c2n[nH]cc2-c2ccc3c(c2)OCO3)nc1 [Example 7, 2-(4-Benzo[1,3]dioxol-5-yl-1H-pyrazol-3-yl)-pyridine]
